Data reported in patent publication US7575882B2, “Compositions and methods for identifying modulators of TRPV2” (Janssen Pharmaceutica N. V., priority 2005, dated 2009).
Read-outs that look alike come from different tables or passages of the source.

Tests used:
[1] = target: T1, rat TRPV2 (Rattus norvegicus, UniProt Q9WUD2, A713V/L151P/T158I); assay: FLIPR calcium mobilization assay in rat TRPV2-expressing HEK293 cells; format: cell-based
T1 construct: A cDNA fragment encoding the full-length rat TRPV2 was subcloned into pCI-neo; expressed in transfected cells
T1 sequence (Q9WUD2 1-761 L151P/T158I/A713V): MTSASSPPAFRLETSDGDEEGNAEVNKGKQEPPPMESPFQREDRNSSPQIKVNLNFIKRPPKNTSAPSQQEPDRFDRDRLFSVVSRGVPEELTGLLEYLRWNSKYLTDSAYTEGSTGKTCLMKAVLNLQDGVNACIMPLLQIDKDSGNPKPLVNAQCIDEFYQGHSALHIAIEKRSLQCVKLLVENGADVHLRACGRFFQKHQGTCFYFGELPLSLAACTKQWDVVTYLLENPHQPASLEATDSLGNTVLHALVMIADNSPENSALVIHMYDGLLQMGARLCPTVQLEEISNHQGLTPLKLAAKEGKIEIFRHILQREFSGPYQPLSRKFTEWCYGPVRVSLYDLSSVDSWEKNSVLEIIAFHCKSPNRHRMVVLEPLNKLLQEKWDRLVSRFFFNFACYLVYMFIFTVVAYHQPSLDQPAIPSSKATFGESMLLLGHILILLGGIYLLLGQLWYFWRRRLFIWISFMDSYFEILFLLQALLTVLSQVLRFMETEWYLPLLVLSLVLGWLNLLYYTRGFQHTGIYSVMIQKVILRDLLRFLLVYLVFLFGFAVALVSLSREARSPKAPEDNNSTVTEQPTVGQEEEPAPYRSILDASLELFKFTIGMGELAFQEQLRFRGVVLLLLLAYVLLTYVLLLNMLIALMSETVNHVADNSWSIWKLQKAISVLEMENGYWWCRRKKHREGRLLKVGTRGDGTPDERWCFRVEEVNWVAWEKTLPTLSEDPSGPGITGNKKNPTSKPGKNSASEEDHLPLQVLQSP
Procedure: A cDNA fragment encoding the full-length rat TRPV2 was subcloned into pCI-neo (Promega, Madison, Wis.) mammalian expression vector. The expression construct was then transfected into HEK293 cells with FuGene6 transfection reagent (Roche, Indianapolis, Ind.) according to the vendor's protocol. Stable cell lines were selected by growth in the presence of 400 μg/ml G418. Single G418 resistant clones were isolated and purified.
The rat TRPV2-expressing HEK293 cells were seeded in a 384-well plate at a concentration of 5×10^3 cells/well and incubated overnight at 37° C. The following day, the cells were loaded with buffer and calcium dye 3 (Molecular Devices, Sunnyvale, Calif.) in a final volume of 50 μl and incubated for 30 minutes at 37° C./5% CO2 followed by 30 additional minutes at room temperature. The fluorescence intensity was measured by a fluorescent plate reader (FLIPR) before, during and after the addition of test compounds.
All data was normalized to that observed for 100 μM Δ^9-THC.

[2] = tested on: deletion mutants of rat TRPV2; assay: Calcium mobilization in HEK293 cells expressing rat TRPV2 deletion mutants; format: cell-based; details: mutants lacking N-terminal 20, 32/33, 65/66 or C-terminal 11, 23, 32 residues
Excerpt: DNA molecules encoding the deletion mutants were amplified by PCR using the rat TRPV2 cDNA as the template. For amino-terminal deletions, a series N-terminal forward primers encoding an initiating methionine in frame with sequences matching adjacent regions of the desired start at residues G21 (mutant N20, SEQ ID NO:11), P33 (N32, SEQ ID NO:12), A66 (N65, SEQ ID NO:13) and V84 (N83, SEQ ID NO:14) paired with a C-terminal reverse primer were used for PCR amplification. While for carboxyl-terminal deletions, a forward N-terminal primer paired with a series C-terminal reverse primers ending at residues R706 (C51, SEQ ID NO:7), P729 (C32, SEQ ID NO:8), P738 (C23, SEQ ID NO:9) and E750 (C11, SEQ ID NO:10) with an in-frame stop codon at the terminal end of the open reading frame were used for amplification. After PCR amplification and purification, the DNA molecules encoding the deletion mutants were subcloned into the pCI-neo mammalian expression vector and the constructs were confirmed by DNA sequencing. […]
The deletion mutant constructs were then transfected into HEK293 cells using Fugene 6 reagent (Roche) as per the manufacturer's instructions. […] Calcium mobilization was triggered using Δ^9-THC or 2-APB or elevated temperature buffer and measured using either FLIPR or FLEX STATION instruments.

[3] = target: T2, rat and human TRPV2 chimera RHR (Rattus norvegicus, UniProt Q9WUD2, A398L/D418K/D570G/D595E/E431N/E493A/E569T/E577V/E585D/F395L/F429V/I422A/INS586GN/K566E/L151P/L436T/L450V/L461V/L478F/L485V/L503S/M468I/M492L/N571P/P420Q/P587G/P589Q/Q419K/R460H/R490C/R560Q/R563W/R617H/S416T/S424H/S425L/S504A/S564R/S573A/S592G/T428E/T494I/T576S/T580M/V402I/V409A/V543I/V575E/V581E/V621M/V635I/Y400N); assay: Calcium mobilization in HEK293 cells expressing TRPV2 chimera RHR; format: cell-based; details: transient expression in HEK293
T2 construct: expressed in transfected cells; host or cells: HEK293, transient, pCI-neo
Procedure: The deletion mutant constructs were then transfected into HEK293 cells using Fugene 6 reagent (Roche) as per the manufacturer's instructions. At 24 hours post-transfection, the cells were harvested and replated in fresh DMEM medium supplemented with 10% fetal bovine serum, 100 units/ml penicillin, and 100 μg/ml streptomycin. The cells were distributed onto poly-D-Lysine coated 96-or 384-well plates at a density of approximately 40,000 and 10,000 cells per well, respectively. At approximately 48 hours post-transfection, the medium was removed from the assay plate and replaced with Calcium 3 Dye Buffer (Molecular Devices) using the protocol available from the manufacturer. Calcium mobilization was triggered using Δ^9-THC or 2-APB or elevated temperature buffer and measured using either FLIPR or FLEX STATION instruments.
Based on the predicted topology and primary sequence features of TRPV2, TRPV2 are divided into 3 major domains: 1) the amino-terminal intracellular domain; 2) the transmembrane domain; and 3) the carboxyl-terminal intracellular domain. For a chimera, each domain can be of rat (R) or human (H) origin. Three rat and human TRPV2 chimera were constructed and tested herein. RRH (SEQ ID NO:15) was a chimera comprising rat 1-392 aa, rat 393-646 aa, and human 647-764 aa. RHR (SEQ ID NO:16) was a chimera comprising rat 1-392, human 391-646, and rat 647-761. HRR (SEQ ID NO:17) was a chimera comprising human 1-390, rat 393-646, and rat 647-761.
DNA molecules encoding the three rat and human TRPV2 chimeras were obtained by fusion PCR. First, DNA molecules encoding the desired TRPV2 domains were amplified by PCR using the rat or human TRPV2 cDNA as the template with synthetic primer DNA containing in-frame sequence that overlapped with the other species domain to be linked. After PCR amplification and purification, DNA molecules encoding the desired TRPV2 domains from human and rat were combined and used as templates for fusion PCR with primer DNA matching the 5′ and 3′ end sequences of the coding sequence for the full length TRPV2 chimera. […]

[4] = target: T3, human TRPV1 (Homo sapiens, UniProt Q8NER1); assay: FLIPR assay in HEK293 cells expressing human TRPV1; format: cell-based; details: Δ^9-THC 240 μM, cannabinol 600 μM, others 120 μM
T3 construct: expressed in transfected cells; host or cells: HEK293
Procedure: A selected number of cannabinoids were also tested against HEK293 cells expressing human TRPV1 and canine TRPM8 in the FLIRP assay.

[5] = target: CB2 receptor; details: cited from earlier work
[6] = 100 μM compound (anandamide 120 μM); normalized to 100 μM Δ^9-THC
[7] = FLIPR, rat TRPV2-expressing HEK293 cells; read-out: EC50 (activation of rat TRPV2)
[8] = HEK293; read-out: % Response (activation of rat TRPV2)

2-aminoethoxydiphenyl borate [2-APB]
% Response (activation of rat TRPV2) [1, 6]: 102% | EC50 [1, 7]: 8 µM | response of rat TRPV2 deletion mutants to the compound [2]: still active | response of chimera RHR to the compound [3]: active

CCCCC/C=C\C/C=C\C/C=C\C/C=C\CCCC(=O)OC(CO)CO [2-AG, 2-arachidonylglycerol]
Emax at 100 µM [1, 8]: 30% | activation of TRPV1 [4]: activated | Ki [5]: 1.4 µM

CCCCC/C=C\C/C=C\C/C=C\C/C=C\CCCC(=O)Nc1ccc(O)cc1 [AM404]
Emax at 100 µM [1, 8]: 6% | activation of TRPV1 [4]: activated

CCCCC/C=C\C/C=C\C/C=C\C/C=C\CCCC(=O)NCCO [Anandamide, N-arachidonoylethanolamine]
activation effect on TRPV2 [1]: no or minimal activation effect | Emax at 100 µM [1, 8]: 0% | activation of TRPV1 [4]: activated | Ki [5]: 1.93 µM

C=C(C)[C@@H]1CCC(C)=C[C@H]1c1c(O)cc(O)cc1CCCCC [CAY10429]
Emax at 100 µM [1, 8]: 0%

CCCCCCC(C)(C)c1ccc(C2CC(O)CCC2CCCO)c(O)c1 (stereo not drawn) [CP55,940]
Emax at 100 µM [1, 8]: 43%

CCCCCc1cc(O)c2c(c1)OC(C)(C)c1ccc(C)cc1-2 [Cannabinol]
EC50 [1, 7]: 77.7 µM | Emax at 100 µM [1, 8]: 68% | activation of TRPV1 [4]: no significant activation

CCCCCCC(C)(C)c1cc(O)c2c(c1)OC(C)(C)[C@H]1CC=C(CO)C[C@H]21 [HU-211]
Emax at 100 µM [1, 8]: 31%

CCCCCCC(C)(C)c1cc(OC)c(C2C=C(CO)[C@H]3CC2C3(C)C)c(OC)c1 (stereo partly drawn) [HU-308]
Emax at 100 µM ([1]; HEK293, read-out: % Response (activation of rat TRPV2)): 10%

C=C(C)[C@@H]1CCC(C)=C[C@H]1C1=C(O)C(=O)C(CCCCC)=CC1=O [HU-331]
EC50 [1, 7]: ~14 µM | Emax at 100 µM [1, 8]: 47%

CCCn1c(C)c(C(=O)c2cccc3ccccc23)c2ccccc21 [JWH015]
Emax at 100 µM [1, 8]: 14%

CCCC(C)(C)c1ccc2c(c1)OC(C)(C)[C@@H]1CC=C(C)C[C@@H]21 [JWH-133]
Emax at 100 µM [1, 8]: 5%

C=C(C)[C@@H]1CCC(C)=C[C@H]1c1c(O)cc(C)cc1O [O-1821]
EC50 [1, 7]: ~20 µM | Emax at 100 µM [1, 8]: 95%

C=C(C)[C@@H]1CCC(C)=CC1c1c(OC)cc(C)cc1OC (stereo partly drawn) [O-1918]
Emax at 100 µM [1, 8]: 6%

CCCCCCCCCCCCCCCC(=O)NCCO [PEA, palmitoylethanolamide]
Emax at 100 µM [1, 8]: 5%

Cc1c(C(=O)c2cccc3ccccc23)c2cccc3c2n1C(CN1CCOCC1)CO3 (stereo not drawn) [WIN 55,212-3]
Emax at 100 µM [1, 8]: 7%

Cc1cc2cccc3c2n1C(CN1CCOCC1)[C@H](C(=O)c1cccc2ccccc12)O3 (stereo partly drawn) [WIN-55,212-2]
Emax at 100 µM [1, 8]: -2%

Cannabidiol
% Response (activation of rat TRPV2) [1, 6]: 163% | EC50 [1, 7]: 3.7 µM

Nabilone
% Response (activation of rat TRPV2) [1, 6]: 59%
